“And” between values parts separate entries of the source, which are not always exact repeats. Equal values may be shown once.

The record followed here is EPA's ToxValDB 9.5.

Series [1] deals with Rattus norvegicus. The settings on record: oral.
For series [2], the system named is Rattus norvegicus. To be noted: subchronic; duration: 13 weeks; oral; gavage; M/F; Fischer 344; Deaths + Body Weight Changes: decrease + Histopathology: Brain/cerebellum -Degeneration Brain/cerebellum -Necrosis Brain/cerebellum -….
Another series has as its system Mus musculus. To be noted: oral, drinking water.
Series [3] concerns Rattus norvegicus. The settings on record: oral. This is another data set of the same source.
Where [4] appears, read: subchronic, duration: 90 days, diet, M/F, reduced body weight.
The mark [5] stands for this setting: subchronic, M/F, forestomach lesions, kidney toxicity.
Setting [6] is: developmental, diet, M/F, increased body weight and liver weight, reduced ossification and slightly dilated ureters in fetuses, reduced offspring weight gain, total ….
Where [7] appears, read: chronic, duration: 2 years, diet, M/F, reduced body weight.
The mark [8] stands for this setting: developmental, M/F, reduced pup survival.
Where [9] appears, read: chronic, M/F, kidney damage and reduced lifespan.
[10] abbreviates: chronic, duration: 6 months, M, Kunming, novel object test (discrimination index) + open field (outer zone entry events).
[11] abbreviates: chronic, duration: 6 months, M, Kunming, open field (center square entry events) + open field (middle zone line cross events).
The mark [12] stands for this setting: chronic, duration: 6 months, drinking water, M/F, Sprague-Dawley, Morris water maze (escape time, acquisition, day 1).
[13] abbreviates: developmental, drinking water, M/F, Wistar, generation: F1, F1: activity time (developmental phase III) + F1: open field (squares traveled, 9 min).

Molecule `CCCCOC(=O)COC(=O)c1ccccc1C(=O)OCCCC` gave an NOEL with Rattus norvegicus [1] (chronic, no effects) of 1000 mg/kg-day.

By LOAEL is commonly meant the lowest tested level that showed an adverse finding. In the series on Rattus norvegicus [1] (chronic, gavage, M/F, mineralization of the kidneys (males), hepatic clear cell change (females)), `ClCC(Cl)(Cl)Cl` [1,1,1,2-Tetrachloroethane] returned an LOAEL of 125 mg/kg-day.

With `C1CSCCS1` [1,4-Dithiane], the LOAEL in the series on Rattus norvegicus [1] (subchronic, duration: 90 days, gavage, M/F, nasal olfactory lesions) came to 105 mg/kg-day.

In the case of `NS(=O)(=O)[O-].[NH4+]` [Ammonium sulfamate], in the series on Rattus norvegicus [1] (setting [4]), the LEL came to 500 mg/kg-day; the NOEL was 250 mg/kg-day and 214 mg/kg-day.

In turn, `COC(=O)NS(=O)(=O)c1ccc(N)cc1` [Asulam] came in with an LEL with Rattus norvegicus [1] (reproduction developmental, F, reduced ovarian weight, lower liver/body weight) of 50 mg/kg-day.

Take `O=Cc1ccccc1` [Benzaldehyde]: in the series with Rattus norvegicus [1] (setting [5]), the LOAEL was 400 mg/kg-day; the NOEL is 143 mg/kg-day and 200 mg/kg-day. For the same molecule, the NOEL in the series on Rattus norvegicus [2] was determined as 200 mg/kg-day.

A word on the NOAEL: it is the highest tested level that showed no adverse finding. For `CCCCC(CC)COC(=O)CCCCC(=O)OCC(CC)CCCC` (stereo unspecified) [Bis(2-ethylhexyl)hexanedioate], in the series on Rattus norvegicus [1] (setting [6]), the LOAEL was 1080 mg/kg-day and the NOAEL was determined as 170 mg/kg-day.

In the series with Rattus norvegicus [1] (setting [7]), `CCCCN(CCCC)SN(C)C(=O)Oc1cccc2c1OC(C)(C)C2` [Carbosulfan] had an LEL of 25 mg/kg-day and an NOEL of 1 mg/kg-day.

In the series with Rattus norvegicus [1] (setting [8]), `COP(=O)(OC)O/C(C)=C/C(=O)N(C)C` [Dicrotophos] displayed an LEL of 0.25 mg/kg-day and an NOEL of 0.1 mg/kg-day.

In the series on Rattus norvegicus [1] (setting [7]), `Cn1c(-c2ccccc2)cc(-c2ccccc2)[n+]1C` [Difenzoquat] had an LEL of 125 mg/kg-day and an NOEL of 25 mg/kg-day.

With `CCOC(=O)COC(=O)c1ccccc1C(=O)OCC` [Ethyl phthalyl ethyl glycolate], in the series with Rattus norvegicus [1] (setting [9]), the LOAEL came to 2500 mg/kg-day and the NOEL worked out at 250 mg/kg-day.

`[F-]` [Fluoride]: the LOEL stood at 2.63 mg/kg-day with Mus musculus (chronic, duration: 6 months, M/F, Kunming, active avoidance (shuttle box, 1st trial number where 3 consecutive conditioned avoidance responses occurred) + active avoidance (shuttle …); 11.5 mg/kg-day in the series on Mus musculus (setting [10]); 5.63 mg/kg-day in the series with Mus musculus (setting [11]); 2.82 mg/kg-day in the series on Mus musculus (chronic, duration: 6 months, M, Kunming, open field (middle zone entry events) + open field (outer zone line cross events) + open field (total distance moved)); 9.58 mg/kg-day with Mus musculus (subchronic, duration: 90 days, M, Swiss, open field (defecation) + open field (grooming events) + open field (rearing events) + open field (squares crossed)); 5.96 mg/L urine with Rattus norvegicus [3] (setting [12]). Moreover, the LOEL was determined as 19 mg/kg-day in the series with Rattus norvegicus [3] (chronic, duration: 16 weeks, drinking water, F, Sprague-Dawley, activity box (groom/attention cluster initiations) + activity box (groom/attention cluster total time) + activity box (groom/explore cluster…); 19 mg/kg-day with Rattus norvegicus [3] (chronic, duration: 16 weeks, drinking water, M, Sprague-Dawley, activity box (attention cluster, total time) + activity box (groom cluster, initiations) + activity box (groom cluster, total time) + …); 10.4 mg/kg-day in the series with Rattus norvegicus [3] (chronic, duration: 104 days, drinking water, M, Sprague-Dawley, tail immersion (withdrawal latency to heat, day 112) + Von Frey hair test (withdrawal threshold, day 104)); 5.29 mg/kg-day in the series with Rattus norvegicus [3] (developmental, drinking water, F, Wistar, generation: F1, F1: pain response (latency time to respond to hot plate)); 3.27 mg/kg-day with Rattus norvegicus [3] (developmental, drinking water, M/F, Sprague-Dawley, generation: F1, F1: Morris water maze (escape time, acquisition, average over days 1-4) + F1: Morris water maze (platform crossing, probe test, day 5) + F1…); 5.29 mg/kg-day in the series with Rattus norvegicus [3] (developmental, drinking water, M/F, Wistar, generation: F1, F1: Morris water maze (number of errors, acquisition) + F1: Morris water maze (time to find platform, probe test) + F1: open field (face …). Further, the LOEL came out at 16 mg/kg-day with Rattus norvegicus [3] (developmental, drinking water, M/F, Wistar, generation: F1, F1: T-maze (number of errors, retention phase) + F1: T-maze (number of sessions to reach learning criterion)); 1.06 mg/kg-day in the series with Rattus norvegicus [3] (setting [13]); 0.21 mg/kg-day in the series with Rattus norvegicus [3] (developmental, drinking water, M/F, Wistar, generation: F1, F1: open field (face scrubbing events, 9 min)); 16 mg/kg-day in the series with Rattus norvegicus [3] (developmental, drinking water, M/F, Wistar, generation: F2, F2: T-maze (number of errors, retention phase) + F2: T-maze (number of sessions to reach learning criterion)); 16 mg/kg-day in the series with Rattus norvegicus [3] (developmental, drinking water, M/F, Wistar, generation: F3, F3: T-maze (number of errors, retention phase) + F3: T-maze (number of sessions to reach learning criterion)); 5.29 mg/kg-day in the series with Rattus norvegicus [3] (developmental, drinking water, M, Wistar, generation: F1, F1: pain response (latency time to respond to hot plate)). The LOEL in the series with Rattus norvegicus [3] (subchronic, duration: 6 weeks, drinking water, F, Sprague-Dawley, activity box (groom cluster, initiations) + activity box (groom cluster, total time) + activity box (groom, initiations) + activity box (…) amounted to 21.4 mg/kg-day; with Rattus norvegicus [3] (subchronic, drinking water, M/F, Sprague-Dawley, generation: P0, P0: Morris water maze (escape time, acquisition, average over days 1-4) + P0: Morris water maze (platform crossing, probe test, day 5) + P0…), 3.27 mg/kg-day. In addition, the NOEL with Mus musculus (chronic, duration: 6 months, M/F, Kunming, active avoidance (shuttle box, response latency to conditioned avoidance response averaged over 150 trials)) was determined as 26.3 mg/kg-day; with Mus musculus (setting [10]), 5.63 mg/kg-day; with Mus musculus (chronic, duration: 6 months, M, Kunming, novel object test (time exploring familiar object, long-term memory phase) + novel object test (time exploring familiar object, short-term …), 11.5 mg/kg-day; in the series on Mus musculus (setting [11]), 2.82 mg/kg-day; with Mus musculus (subchronic, duration: 90 days, M, Swiss, tail suspension test (immobility time, total 6 min)), 9.58 mg/kg-day; with Rattus norvegicus [3] (chronic, duration: 4 months, diet, M, Hooded, T-maze, multiple (number of errors, acquisition, trial 1) + T-maze, multiple (number of errors, retention, trial 9) + T-maze, multiple (time…) it was 6.13 mg/kg-day. In addition, the NOEL in the series with Rattus norvegicus [3] (setting [12]) was 2.59 mg/L urine; in the series on Rattus norvegicus [3] (chronic, duration: 6 months, drinking water, M/F, Sprague-Dawley, Morris water maze (escape time, acquisition, day 5)), 5.96 mg/L urine; with Rattus norvegicus [3] (chronic, duration: 16 weeks, drinking water, F, Sprague-Dawley, activity box (attention cluster, total time) + activity box (groom cluster, initiations) + activity box (groom cluster, total time) + …) it was 19 mg/kg-day; in the series on Rattus norvegicus [3] (chronic, duration: 16 weeks, drinking water, M, Sprague-Dawley, activity box (groom/attention cluster, total time) + activity box (head turn, initiations) + activity box (head turn, total time)), 19 mg/kg-day; with Rattus norvegicus [3] (chronic, duration: 104 days, drinking water, M, Sprague-Dawley, Von Frey hair test (withdrawal threshold, day 0)), 20.8 mg/kg-day; in the series with Rattus norvegicus [3] (chronic, duration: 195 days, drinking water, M, Lou/C, tail immersion (withdrawal latency to heat, 195 days) + Von Frey hair test (withdrawal threshold, 195 days) + Von Frey hair test (withdrawal…) it was 20.8 mg/kg-day. Besides, the NOEL is 1.06 mg/kg-day with Rattus norvegicus [3] (developmental, drinking water, M/F, Wistar, generation: F1, F1: Morris water maze (number of errors, acquisition) + F1: Morris water maze (time to find platform, probe test)); 5.29 mg/kg-day in the series on Rattus norvegicus [3] (developmental, drinking water, M/F, Wistar, generation: F1, F1: activity time (developmental phase I) + F1: activity time (developmental phase II) + F1: activity time (developmental phase III) + F1: …); 0.21 mg/kg-day with Rattus norvegicus [3] (setting [13]); 21.4 mg/kg-day in the series with Rattus norvegicus [3] (subchronic, duration: 6 weeks, drinking water, F, Sprague-Dawley, activity box (attention cluster, total time) + activity box (groom/attention cluster, total time) + activity box (groom/explore cluster, …). In addition, in the series on Rattus norvegicus [3] (chronic, duration: 8 months, drinking water, F, Sprague-Dawley, acquisition of the bar press response (days to reach learning criteria) + acquisition of the bar press response (maximum response)), the “NOEL (mg/kg ash femur)” value came out at 14800.
